For seven cell lines, relative viability results are on record in the supplement of paper PMC10307832.

Experiment in all cases: relative viability (nuclei count vs DMSO), 5 days (fraction); higher = more cells survive
Compound in assay [1]: C[C@]12O[C@H](C[C@]1(O)CO)n1c3ccccc3c3c4c(c5c6ccccc6n2c5c31)CNC4=O [Lestaurtinib] + CCNC(=O)c1noc(-c2cc(C(C)C)c(O)cc2O)c1-c1ccc(CN2CCOCC2)cc1 [Luminespib] (partner 0.01 µM)
The gist of the method: (§1)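 Five library-drug doses in √10 steps were combined with a fixed anchor-drug dose, or a single drug was given alone, by pin tool to lung cancer cell lines in 1536-well plates the day after seeding. Nuclei were stained and counted after 5 days. Relative viability is the nuclei count in treated wells over that in vehicle wells, taken as the median of duplicate plates.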

Compound in the assay “Lestaurtinib + OSI-027”: C[C@]12O[C@H](C[C@]1(O)CO)n1c3ccccc3c3c4c(c5c6ccccc6n2c5c31)CNC4=O [Lestaurtinib] + COc1cccc2cc(-c3nc([C@H]4CC[C@H](C(=O)O)CC4)n4ncnc(N)c34)[nH]c12 [OSI-027] (partner 0.5 µM)
The method, boiled down:
as §1

Compound in the assay “TPCA-1 + Linsitinib”: C1=CC(=CC=C1C2=CC(=C(S2)NC(=O)N)C(=O)N)F [TPCA-1] + C[C@]1(O)C[C@@H](c2nc(-c3ccc4ccc(-c5ccccc5)nc4c3)c3c(N)nccn32)C1 [Linsitinib] (partner 1 µM)
The method, boiled down:
as §1

Compound in assay [2]: C[C@]12O[C@H](C[C@]1(O)CO)n1c3ccccc3c3c4c(c5c6ccccc6n2c5c31)CNC4=O [Lestaurtinib] + Nc1nc2[nH]cc(CCc3ccc(C(=O)N[C@@H](CCC(=O)O)C(=O)O)cc3)c2c(=O)[nH]1 [Pemetrexed] (partner 0.2 µM)
The method, boiled down: as §1

Regarding NCI-H1563, the relative viability in assay [1] (first compound 0.005 µM) is 0.554; in assay [1] (first compound 0.01581 µM), 0.495; in assay [1] (first compound 0.05 µM), 0.546; in assay [1] (first compound 0.1581 µM) it was 0.5; in assay [1] (first compound 0.5 µM) it was 0.48; in the assay with Lestaurtinib + OSI-027 (first compound 0.005 µM), 0.724. In addition, the relative viability in the assay with Lestaurtinib + OSI-027 (first compound 0.01581 µM) is 0.755; in the assay with Lestaurtinib + OSI-027 (first compound 0.05 µM), 0.757; with Lestaurtinib + OSI-027 (first compound 0.1581 µM), 0.777; with Lestaurtinib + OSI-027 (first compound 0.5 µM), 0.734; with TPCA-1 + Linsitinib (first compound 0.04 µM), 1.2; in the assay with TPCA-1 + Linsitinib (first compound 0.1265 µM), 1.23. Further, the relative viability with TPCA-1 + Linsitinib (first compound 0.4 µM) is 1.17; in the assay with TPCA-1 + Linsitinib (first compound 1.265 µM), 1.12; in the assay with TPCA-1 + Linsitinib (first compound 4 µM), 1.16; in assay [2] (first compound 0.005 µM) it was 0.71; in assay [2] (first compound 0.01581 µM), 0.855; in assay [2] (first compound 0.05 µM), 0.613. The values for the relative viability in assay [2] (first compound 0.1581 µM) and in assay [2] (first compound 0.5 µM) were 0.797 and 0.723, respectively.
Take NCI-H1651: the relative viability in assay [1] (first compound 0.005 µM) turned out to be 0.866; in assay [1] (first compound 0.01581 µM), 0.938; in assay [1] (first compound 0.05 µM) it was 0.897; in assay [1] (first compound 0.1581 µM), 0.806; in assay [1] (first compound 0.5 µM), 0.461; with Lestaurtinib + OSI-027 (first compound 0.005 µM), 0.745. The relative viability stood at 0.799 in the assay with Lestaurtinib + OSI-027 (first compound 0.01581 µM); 0.566 with Lestaurtinib + OSI-027 (first compound 0.05 µM); 0.753 with Lestaurtinib + OSI-027 (first compound 0.1581 µM); 0.493 in the assay with Lestaurtinib + OSI-027 (first compound 0.5 µM); 1.13 in the assay with TPCA-1 + Linsitinib (first compound 0.04 µM); 0.891 with TPCA-1 + Linsitinib (first compound 0.1265 µM). Besides, the relative viability with TPCA-1 + Linsitinib (first compound 0.4 µM) came to 0.985; with TPCA-1 + Linsitinib (first compound 1.265 µM), 0.947; with TPCA-1 + Linsitinib (first compound 4 µM), 0.974; in assay [2] (first compound 0.005 µM), 0.534; in assay [2] (first compound 0.01581 µM), 0.722; in assay [2] (first compound 0.05 µM), 0.571. Further, the relative viability in assay [2] (first compound 0.1581 µM) amounted to 0.615; in assay [2] (first compound 0.5 µM), 0.388.
In the case of NCI-H1666, the relative viability stood at 1.05 in assay [1] (first compound 0.005 µM); 1.14 in assay [1] (first compound 0.01581 µM); 1.46 in assay [1] (first compound 0.05 µM); 0.959 in assay [1] (first compound 0.1581 µM); 0.609 in assay [1] (first compound 0.5 µM); 0.904 in the assay with Lestaurtinib + OSI-027 (first compound 0.005 µM). In addition, the relative viability was found to be 0.934 with Lestaurtinib + OSI-027 (first compound 0.01581 µM); 0.917 in the assay with Lestaurtinib + OSI-027 (first compound 0.05 µM); 0.757 with Lestaurtinib + OSI-027 (first compound 0.1581 µM); 0.518 with Lestaurtinib + OSI-027 (first compound 0.5 µM); 0.756 with TPCA-1 + Linsitinib (first compound 0.04 µM); 0.688 with TPCA-1 + Linsitinib (first compound 0.1265 µM). Besides, the relative viability with TPCA-1 + Linsitinib (first compound 0.4 µM) was 0.785; in the assay with TPCA-1 + Linsitinib (first compound 1.265 µM) it was 0.993; with TPCA-1 + Linsitinib (first compound 4 µM), 0.723; in assay [2] (first compound 0.005 µM), 0.988; in assay [2] (first compound 0.01581 µM) it was 0.92; in assay [2] (first compound 0.05 µM), 0.948. The values for the relative viability in assay [2] (first compound 0.1581 µM) and in assay [2] (first compound 0.5 µM) were 0.95 and 0.707, respectively.
On to NCI-H1734, for which the relative viability in assay [1] (first compound 0.005 µM) is 0.2; in assay [1] (first compound 0.01581 µM), 0.0895; in assay [1] (first compound 0.05 µM), 0.185; in assay [1] (first compound 0.1581 µM), 0.159; in assay [1] (first compound 0.5 µM), 0.155; with Lestaurtinib + OSI-027 (first compound 0.005 µM) it was 0.678. Moreover, the relative viability came out at 0.571 in the assay with Lestaurtinib + OSI-027 (first compound 0.01581 µM); 0.368 with Lestaurtinib + OSI-027 (first compound 0.05 µM); 0.362 in the assay with Lestaurtinib + OSI-027 (first compound 0.1581 µM); 0.187 in the assay with Lestaurtinib + OSI-027 (first compound 0.5 µM); 0.992 with TPCA-1 + Linsitinib (first compound 0.04 µM); 0.729 in the assay with TPCA-1 + Linsitinib (first compound 0.1265 µM). In addition, the relative viability in the assay with TPCA-1 + Linsitinib (first compound 0.4 µM) came to 0.878; with TPCA-1 + Linsitinib (first compound 1.265 µM), 0.829; with TPCA-1 + Linsitinib (first compound 4 µM), 0.89; in assay [2] (first compound 0.005 µM) it was 0.439; in assay [2] (first compound 0.01581 µM) it was 0.392; in assay [2] (first compound 0.05 µM) it was 0.402. The relative viability was found to be 0.397 in assay [2] (first compound 0.1581 µM) and 0.178 in assay [2] (first compound 0.5 µM).
For NCI-H1755, the relative viability in assay [1] (first compound 0.005 µM) worked out at 0.41; in assay [1] (first compound 0.01581 µM) it was 0.42; in assay [1] (first compound 0.05 µM), 0.453; in assay [1] (first compound 0.1581 µM), 0.211; in assay [1] (first compound 0.5 µM), 0.204; with Lestaurtinib + OSI-027 (first compound 0.005 µM), 0.814. Also, the relative viability in the assay with Lestaurtinib + OSI-027 (first compound 0.01581 µM) amounted to 0.706; with Lestaurtinib + OSI-027 (first compound 0.05 µM) it was 0.471; in the assay with Lestaurtinib + OSI-027 (first compound 0.1581 µM), 0.406; with Lestaurtinib + OSI-027 (first compound 0.5 µM), 0.338; with TPCA-1 + Linsitinib (first compound 0.04 µM), 0.978; in the assay with TPCA-1 + Linsitinib (first compound 0.1265 µM), 0.941. Moreover, the relative viability is 1 in the assay with TPCA-1 + Linsitinib (first compound 0.4 µM); 1 with TPCA-1 + Linsitinib (first compound 1.265 µM); 0.852 with TPCA-1 + Linsitinib (first compound 4 µM); 0.478 in assay [2] (first compound 0.005 µM); 0.463 in assay [2] (first compound 0.01581 µM); 0.41 in assay [2] (first compound 0.05 µM). For the same cell line, the relative viability in assay [2] (first compound 0.1581 µM) came to 0.36; in assay [2] (first compound 0.5 µM) it was 0.353.
For NCI-H1792, the relative viability in assay [1] (first compound 0.01581 µM) is 0.618; in assay [1] (first compound 0.05 µM), 0.332; in assay [1] (first compound 0.1581 µM), 0.464; in assay [1] (first compound 0.5 µM), 0.158; with Lestaurtinib + OSI-027 (first compound 0.005 µM) it was 0.95; with Lestaurtinib + OSI-027 (first compound 0.01581 µM) it was 0.698. Further, the relative viability with Lestaurtinib + OSI-027 (first compound 0.05 µM) is 0.83; with Lestaurtinib + OSI-027 (first compound 0.1581 µM), 0.776; with Lestaurtinib + OSI-027 (first compound 0.5 µM), 0.424; in the assay with TPCA-1 + Linsitinib (first compound 0.04 µM), 0.574; in the assay with TPCA-1 + Linsitinib (first compound 0.1265 µM) it was 0.467; in the assay with TPCA-1 + Linsitinib (first compound 0.4 µM) it was 0.561. Further, the relative viability is 0.47 with TPCA-1 + Linsitinib (first compound 1.265 µM); 0.283 with TPCA-1 + Linsitinib (first compound 4 µM); 0.748 in assay [2] (first compound 0.005 µM); 1.15 in assay [2] (first compound 0.01581 µM); 0.257 in assay [2] (first compound 0.05 µM); 0.371 in assay [2] (first compound 0.1581 µM). In assay [2] (first compound 0.5 µM), the relative viability stood at 0.31.
Consider NCI-H1793, for which the relative viability in assay [1] (first compound 0.005 µM) worked out at 0.193; in assay [1] (first compound 0.01581 µM), 0.249; in assay [1] (first compound 0.05 µM), 0.156; in assay [1] (first compound 0.1581 µM), 0.154; in assay [1] (first compound 0.5 µM), 0.161; with Lestaurtinib + OSI-027 (first compound 0.005 µM), 0.291. Further, the relative viability worked out at 0.257 with Lestaurtinib + OSI-027 (first compound 0.01581 µM); 0.242 with Lestaurtinib + OSI-027 (first compound 0.05 µM); 0.274 in the assay with Lestaurtinib + OSI-027 (first compound 0.1581 µM); 0.183 in the assay with Lestaurtinib + OSI-027 (first compound 0.5 µM); 1.05 in the assay with TPCA-1 + Linsitinib (first compound 0.04 µM); 0.674 with TPCA-1 + Linsitinib (first compound 0.1265 µM). Also, the relative viability with TPCA-1 + Linsitinib (first compound 0.4 µM) came out at 0.934; in the assay with TPCA-1 + Linsitinib (first compound 1.265 µM), 0.683; in the assay with TPCA-1 + Linsitinib (first compound 4 µM) it was 0.727; in assay [2] (first compound 0.005 µM) it was 0.809; in assay [2] (first compound 0.01581 µM) it was 0.911; in assay [2] (first compound 0.05 µM), 0.544. In addition, the relative viability came out at 0.692 in assay [2] (first compound 0.1581 µM) and 0.541 in assay [2] (first compound 0.5 µM).
